The results in this text go back to article PMC9947975, “Design, Synthesis, and Biological Evaluation Studies of Novel Naphthalene-Chalcone Hybrids As Antimicrobial, Anticandidal, Anticancer, and VEGFR-2 Inhibitors” (ACS Omega, 2023).

In brackets after ≈: the same amount, converted by molar mass.

In one data set the test system is S. aureus (ATCC 29213). The experiment in a line: Antibacterial activity, MIC50 by resazurin fluorometric measurement. Format: cell-based, Staphylococcus aureus. To be noted: Staphylococcus aureus, ATCC29213, means of triplicate assays. Here is the method:
(§1) Obtained compounds (2a–2j) were evaluated for antibacterial activity against Escherichia coli (E. coli) (ATCC 25922), Pseudomonas aeruginosa (P. aeruginosa) (ATCC 27853), […] (E. faecalis) (ATCC 2942), Bacillus subtilis (B. subtilis) (ATCC 6051), Staphylococcus aureus (S. aureus) (ATCC 29213), and Staphylococcus epidermidis (S. epidermidis) (ATCC 12228). MIC50 values were determined via fluorometric measurements, using resazurin solution.[13] Azithromycin was used as a standard drug in the antibacterial activity test.
(§2) The antimicrobial activity of obtained derivatives (2a–2j) was screened on six bacterial and three fungal strains according to the standard procedure of CLSI[20] as described in the previous study.[21] The antibacterial activities of the obtained compounds were screened against B. subtilis (ATCC 6051), E. coli (ATCC 25922), E. faecalis (ATCC 2942), P. aeruginosa (ATCC 27853), S. aureus (ATCC 29213), and S. epidermidis (ATCC 12228). The obtained compounds were evaluated for anticandidal activity against C. albicans (ATCC 24433), C. krusei (ATCC 6258), and C. parapsilopsis (ATCC 22019). For antibacterial activity, azithromycin was utilized as a reference drug, whereas voriconazole and fluconazole were used for anticandidal activity.
(Alamar Blue is a resazurin reagent that responds to reducing activity.)

A further data set deals with C. krusei (ATCC 6258). Briefly: Anticandidal activity, MIC50 by resazurin fluorometric measurement. To be noted: Pichia kudriavzevii, ATCC6258, means of triplicate assays. Format: cell-based, Candida krusei. The method, then: (§3) Obtained compounds (2a–2j) were evaluated for anticandidal activity against Candida albicans (C. albicans) (ATCC 24433), Candida krusei (C. krusei) (ATCC 6258), and Candida parapsilopsis (C. parapsilopsis) (ATCC 22019). MIC50 values were determined via fluorometric measurements, using resazurin solution.[13] Voriconazole and fluconazole were used as a standard drug in the anticandidal activity test. […] In general, it is seen that the 2-methoxyethyl substituent increases the anticandidal activity.
as §2

For another data set, the system named is C. albicans (ATCC 24433). The description is as above. It counts as cell-based, Candida albicans. Particulars: Candida albicans, ATCC24433, means of triplicate assays. The method, then: as §3, §2
Data set [1] deals with healthy mouse fibroblast cell (NIH3T3). Briefly: MTT cytotoxicity test on healthy cells. It counts as cell-based. To be noted: 24-h treatment, means of quartet assays ± SEM. The method, then: (§4) The MTT test was performed using 3 different cell lines for calculated IC50 values of obtained compounds. […] For this purpose, the cytotoxic effects of the compounds against the healthy mouse fibroblast cell (NIH3T3) were investigated.
(§5) The 3-(4,5-dimethylthiazol-2-yl)-2,5-diphenyltetrazolium salt reduction method, or MTT assay, is used to measure the metabolic activity of live cells. […] Doxorubicin is used as a therapeutic drug. MTT assays were carried out as previously explained.[19]
In general terms: Formazan colour is commonly taken as a measure of viable cells.

The subject of data set [2] is P. aeruginosa (ATCC 27853). Briefly: Antibacterial activity, MIC50 by resazurin fluorometric measurement. It counts as cell-based. Particulars: Pseudomonas aeruginosa, ATCC27853; means of triplicate assays. The method, then: as §1, §2
The subject of a further data set is E. coli (ATCC 25922). The description is as above. Format: cell-based. Particulars: Escherichia coli, ATCC25922; means of triplicate assays. The method, then: as §1, §2
The next data set deals with B. subtilis (ATCC 6051). The description is as above. It counts as cell-based. To be noted: Bacillus subtilis, ATCC6051; means of triplicate assays. Here is the method:
as §1, §2

In another data set the test system is A549 cell line. The experiment in a line: MTT cytotoxicity test. Particulars: Homo sapiens, A549, 24 h, MTT, 24-h treatment, means of quartet assays ± SEM. Format: cell-based. The method, then: as §4, §5
The next data set concerns HepG2 cell line. Briefly: MTT cytotoxicity test. Format: cell-based. Particulars: Homo sapiens, 24-h treatment, means of quartet assays ± SEM. The method, then: as §4, §5
Data set [3] has as its system C. parapsilopsis (ATCC 22019). Briefly: Anticandidal activity, MIC50 by resazurin fluorometric measurement. Format: cell-based, Candida parapsilopsis. To be noted: Candida, ATCC22019; means of triplicate assays. Here is the method:
as §3, §2

Data set [4] concerns S. epidermidis (ATCC 12228). Briefly: Antibacterial activity, MIC50 by resazurin fluorometric measurement. Format: cell-based, Staphylococcus epidermidis. To be noted: Staphylococcus epidermidis, ATCC12228, means of triplicate assays; read-out: MIC50 S. epidermis. Here is the method:
as §1, §2

The test system of a further data set is E. faecalis (ATCC 2942). Described as above. Particulars: for MIC50: Enterococcus faecalis, ATCC2942, means of triplicate assays. It counts as cell-based, Enterococcus faecalis. Here is the method:
as §1, §2

Take `CC(C)N1CCN(c2ccc(C(=O)C=Cc3cccc4ccccc34)cc2)CC1` [2c, 1-(4-(4-Isopropylpiperazin-1-yl)phenyl)-3-(naphthalen-1-yl)prop-2-en-1-one]: the melting point (usually the temperature of the solid-liquid transition) was 146.8 to 147.5 °C. Moreover, in the data set with S. aureus (ATCC 29213), the MIC50 (as a rule, the lowest concentration that inhibits either 50% of growth or 50% of the strains tested, depending on the study) is 62.5 µg/mL (≈ 163 µM). In addition, the MIC50 against C. krusei (ATCC 6258) is 62.5 µg/mL (≈ 163 µM). The compound further showed an MIC50 against C. albicans (ATCC 24433) of 15.6 µg/mL (≈ 40.6 µM). Also, the IC50 (usually the concentration that gives 50% inhibition) in [1] was over 100 µM. In data set [2], the MIC50 worked out at 62.5 µg/mL (≈ 163 µM). Moreover, the MIC50 against E. coli (ATCC 25922) was over 100 µg/mL. Also, the MIC50 in the data set with B. subtilis (ATCC 6051) was over 100 µg/mL. Also, the IC50 in the data set with A549 cell line is 34.3 ± 5.56 µM. For the same compound, the IC50 in the data set on HepG2 cell line turned out to be 96.1 ± 5.46 µM. In data set [3], this compound showed an MIC50 of over 100 µg/mL. In [4], the MIC50 is 31.3 µg/mL (≈ 81.4 µM). In the data set with E. faecalis (ATCC 2942), the MIC50 amounted to 31.3 µg/mL (≈ 81.4 µM).

Take `CC(C)N1CCN(c2ccc(C(=O)C=Cc3ccc4ccccc4c3)cc2)CC1` [2h, 1-(4-(4-Isopropylpiperazin-1-yl)phenyl)-3-(naphthalen-2-yl)prop-2-en-1-one]: the melting point lay in the range of 213.3 to 214.9 °C. This compound also displayed an MIC50 in the data set with S. aureus (ATCC 29213) of over 100 µg/mL. For the same compound, the MIC50 in the data set with C. krusei (ATCC 6258) was over 100 µg/mL. For the same compound, the MIC50 against C. albicans (ATCC 24433) turned out to be 31.3 µg/mL (≈ 81.4 µM). In data set [1], this compound had a half-inhibitory concentration (IC50) of 66.5 ± 0.98 µM. The compound further had an MIC50 in data set [2] of over 100 µg/mL. The MIC50 in the data set on E. coli (ATCC 25922) is over 100 µg/mL. The MIC50 in the data set with B. subtilis (ATCC 6051) is over 100 µg/mL. The concentration for half-maximal inhibition (IC50) in the data set with A549 cell line came to 41.3 ± 1.5 µM. This compound also displayed an IC50 in the data set on HepG2 cell line of 46.3 ± 1.25 µM. In addition, the MIC50 in data set [3] was over 100 µg/mL. Further, the MIC50 in data set [4] was 62.5 µg/mL (≈ 163 µM). In the data set with E. faecalis (ATCC 2942), the MIC50 was 31.3 µg/mL (≈ 81.4 µM).

For the compound `C=CCN1CCN(c2ccc(C(=O)C=Cc3cccc4ccccc34)cc2)CC1` [2d, 1-(4-(4-Allylpiperazin-1-yl)phenyl)-3-(naphthalen-1-yl)prop-2-en-1-one], the melting point was 120.2 to 121.9 °C. This compound also registered an MIC50 against S. aureus (ATCC 29213) of over 100 µg/mL. The MIC50 against C. krusei (ATCC 6258) turned out to be 62.5 µg/mL (≈ 163 µM). Further, the MIC50 against C. albicans (ATCC 24433) was 31.3 µg/mL (≈ 81.8 µM). In data set [1], this compound returned an IC50 of 19.8 ± 1.31 µM. The MIC50 in data set [2] came to 62.5 µg/mL (≈ 163 µM). In the data set on E. coli (ATCC 25922), the MIC50 is over 100 µg/mL. Besides, the MIC50 in the data set on B. subtilis (ATCC 6051) was over 100 µg/mL. The same compound registered an IC50 with A549 cell line of 71.1 ± 3.08 µM. Besides, 45.1 ± 8.12 µM corresponded to half-maximal inhibition with HepG2 cell line (IC50). The MIC50 in data set [3] is over 100 µg/mL. Besides, the MIC50 in data set [4] was determined as 31.3 µg/mL (≈ 81.8 µM). The MIC50 against E. faecalis (ATCC 2942) amounted to 15.6 µg/mL (≈ 40.8 µM). For the same compound, the “MIC50 E. faecalis” value in the data set on E. faecalis (ATCC 2942) (means of triplicate assays) amounted to 15.7 µg/mL (≈ 41 µM).

`CCN1CCN(c2ccc(C(=O)C=Cc3ccc4ccccc4c3)cc2)CC1` [2g, 1-(4-(4-Ethylpiperazin-1-yl)phenyl)-3-(naphthalen-2-yl)prop-2-en-1-one] returned a melting point of 196.5 to 198 °C. The same compound gave an MIC50 with S. aureus (ATCC 29213) of over 100 µg/mL. In the data set with C. krusei (ATCC 6258), the MIC50 is over 100 µg/mL. In addition, in the data set with C. albicans (ATCC 24433), the MIC50 worked out at 31.3 µg/mL (≈ 84.5 µM). The compound further returned an IC50 in [1] of 52.4 ± 2.57 µM. The MIC50 in data set [2] was over 100 µg/mL. The compound further registered an MIC50 in the data set on E. coli (ATCC 25922) of over 100 µg/mL. This compound yielded an MIC50 against B. subtilis (ATCC 6051) of over 100 µg/mL. The same compound registered an IC50 in the data set with A549 cell line of 39.1 ± 1.24 µM. Inhibition in the data set with HepG2 cell line was half-maximal at 35.6 ± 0.98 µM (IC50). The MIC50 in data set [3] is over 100 µg/mL. For the same compound, the MIC50 in data set [4] turned out to be 62.5 µg/mL (≈ 169 µM). In the data set on E. faecalis (ATCC 2942), this compound showed an MIC50 of 31.3 µg/mL (≈ 84.5 µM).

Consider `CN1CCN(c2ccc(C(=O)C=Cc3cccc4ccccc34)cc2)CC1` [2a, 1-(4-(4-Methylpiperazin-1-yl)phenyl)-3-(naphthalen-1-yl)prop-2-en-1-one], for which the melting point fell in the range of 150.2 to 152.1 °C. The compound also came in with an MIC50 against S. aureus (ATCC 29213) of over 100 µg/mL. Further, the MIC50 in the data set on C. krusei (ATCC 6258) came to 62.5 µg/mL (≈ 175 µM). This compound registered an MIC50 against C. albicans (ATCC 24433) of 31.3 µg/mL (≈ 87.8 µM). Besides, the IC50 in data set [1] was found to be 61.9 ± 1.42 µM. In data set [2], this compound registered an MIC50 of 62.5 µg/mL (≈ 175 µM). The compound further returned an MIC50 with E. coli (ATCC 25922) of over 100 µg/mL. Also, the MIC50 in the data set on B. subtilis (ATCC 6051) is over 100 µg/mL. In the data set on A549 cell line, the IC50 is over 100 µM. In the data set with HepG2 cell line, this compound yielded a half-maximal inhibitory concentration (IC50) of over 100 µM. Besides, the MIC50 in data set [3] was found to be 62.5 µg/mL (≈ 175 µM). Besides, the MIC50 in data set [4] was found to be 62.5 µg/mL (≈ 175 µM). In the data set on E. faecalis (ATCC 2942), this compound had an MIC50 of 31.3 µg/mL (≈ 87.8 µM).

As to `CC[C@H]1OC(=O)[C@H](C)[C@@H](O[C@H]2C[C@@](C)(OC)[C@@H](O)[C@H](C)O2)[C@H](C)[C@@H](O[C@@H]2O[C@H](C)C[C@H](N(C)C)[C@H]2O)[C@](C)(O)C[C@@H](C)CN(C)[C@H](C)[C@@H](O)[C@]1(C)O` [SD1, Azithromycin, reference compound], the MIC50 (against S. aureus (ATCC 29213); in data set [2]; against E. coli (ATCC 25922); against B. subtilis (ATCC 6051); in data set [4]; in the data set on E. faecalis (ATCC 2942)) was under 0.97 µg/mL in each case.
